Results from patent publication US5672710A, “Sulfides, sulfoxides and sulfones disubstituted with a tetrahydronaphthalenyl, chromanyl, thiochromanyl or tetrahydroquinolinyl and substituted phenyl or heteroaryl group, having retinoid-like biological activity” (priority 1995, dated 1997).

Assays:
RXRα [1] = target: T1, RXRα (Homo sapiens, UniProt P19793); experiment: Holoreceptor transactivation assay, RXRα; assay type: cell-based; conditions: CV1 cells; for Emax: CV-1, relative to all trans retinoic acid, read-out: Transactivation Assay Efficacy (% of RA activity), RXRα; for EC50: 36 hours
T1 construct: expressed in transfected cells; host or cells: CV1
T1 sequence (P19793 1-462): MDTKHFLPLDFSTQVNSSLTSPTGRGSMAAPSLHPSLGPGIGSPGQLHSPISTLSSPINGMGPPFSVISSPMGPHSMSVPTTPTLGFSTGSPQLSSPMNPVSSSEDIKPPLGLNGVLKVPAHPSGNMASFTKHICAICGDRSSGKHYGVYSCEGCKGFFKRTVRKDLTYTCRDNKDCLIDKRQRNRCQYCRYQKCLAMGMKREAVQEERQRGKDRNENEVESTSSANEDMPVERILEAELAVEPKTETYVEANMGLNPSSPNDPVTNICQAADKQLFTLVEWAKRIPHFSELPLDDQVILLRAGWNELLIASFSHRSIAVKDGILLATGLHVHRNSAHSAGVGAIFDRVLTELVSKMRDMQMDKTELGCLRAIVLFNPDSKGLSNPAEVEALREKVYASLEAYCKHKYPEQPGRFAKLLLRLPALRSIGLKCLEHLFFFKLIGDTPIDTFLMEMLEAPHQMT
From the text: (§1) A holoreceptor transactivation assay and a ligand binding assay which measure the ability of the compounds of the invention to bind to the several retinoid receptor subtypes, respectively, are described in published PCT Application No. WO W093/11755 (particularly on pages 30-33 and 37-41) published on Jun. 24, 1993, the specification of which is also incorporated herein by reference. A description of the holoreceptor transactivation assay is also provided below.
(§2) CV1 cells (5,000 cells/well) were transfected with an RAR reporter plasmid MTV-TREp-LUC (50 ng) along with one of the […] expression vectors (10 ng) in an automated 96-well format by the calcium phosphate procedure of Heyman et al. Cell 68, 397-406. (8). For RXRα and RXR.GAMMA. transactivation assays, an RXR-responsive reporter plasmid CRBPII-tk-LUC (50 ng) along with the appropriate RXRexpression vectors (10 ng) was used substantially as described by Heyman et al. above, and Allegretto et al. J. Biol. Chem. 268, 26625-26633. For RXRβ transactivation assays, an RXR-responsive reporter plasmid CPRE-tk-LUC ([…]) along with RXRβ expression vector ([…]) was used as described in above. These reporters contain DRI elements from human CRBPII and certain DRI elements from promoter, respectively. (see Mangelsdorf et al. The Retinoids: Biology, Chemistry and Medicine, pp 319-349, Raven Press Ltd., New York and Heyman et al., cited above) (1, 8). A β-galactosidase (50 ng) expression vector was used as an internal control in the transfections to normalize for variations in transfection efficiency. The cells were transfected in triplicate for 6 hours, followed by incubation with retinoids for 36 hours, and the extracts were assayed for luciferase and β-galactosidase activities. The detailed experimental procedure for holoreceptor transactivations has been described in Heyman et al. above, and Allegretto et al. cited above. The results obtained in this assay in connection with examplary compounds in accordance with the present invention are expressed in EC50 numbers, as they are also in the chimeric receptor transactivation assay. The Heyman et al. Cell 68, 397-406, Allegretto et al. J. Biol. Chem. 268, 26625-26633, and Mangelsdorf et al. The Retinoids: Biology, Chemistry and Medicine, pp 319-349, Raven Press Ltd., New York, are expressly incorporated herein by reference. The results of ligand binding assay are expressed in Kd numbers. (See Cheng et al. Biochemical Pharmacology Vol. 22 pp 3099-3108, expressly incorporated herein by reference.)

RXRα [2] = target: T1, RXRα; experiment: Ligand binding assay, RXRα
From the text: as §1, §2

RXRβ = target: T2, RXRβ (Mus musculus, UniProt P28704); experiment: Ligand binding assay, RXRβ
T2 construct: expressed in transfected cells; host or cells: CV1
T2 sequence (P28704 1-520): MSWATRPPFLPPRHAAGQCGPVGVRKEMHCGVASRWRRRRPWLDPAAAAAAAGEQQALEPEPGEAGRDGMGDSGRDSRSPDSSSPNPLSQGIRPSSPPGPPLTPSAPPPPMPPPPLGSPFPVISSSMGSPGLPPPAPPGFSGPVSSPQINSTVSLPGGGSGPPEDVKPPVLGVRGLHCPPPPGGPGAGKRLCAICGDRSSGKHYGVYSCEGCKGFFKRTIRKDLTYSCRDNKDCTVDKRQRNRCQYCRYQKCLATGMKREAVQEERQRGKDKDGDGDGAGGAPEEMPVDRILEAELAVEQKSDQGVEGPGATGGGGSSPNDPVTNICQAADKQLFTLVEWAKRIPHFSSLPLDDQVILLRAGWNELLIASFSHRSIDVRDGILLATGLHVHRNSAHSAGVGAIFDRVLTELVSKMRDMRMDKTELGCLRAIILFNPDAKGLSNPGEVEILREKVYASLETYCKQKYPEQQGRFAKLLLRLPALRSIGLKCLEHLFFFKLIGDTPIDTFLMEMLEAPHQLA
From the text: as §1, §2

RARγ = target: T3, RARγ (Homo sapiens, UniProt P13631); experiment: Holoreceptor transactivation assay, RARγ; assay type: cell-based; conditions: CV-1; CV1 cells; relative to all trans retinoic acid; read-out: Transactivation Assay Efficacy (% of RA activity), RARγ
T3 construct: expressed in transfected cells; host or cells: CV1
T3 sequence (P13631 1-454): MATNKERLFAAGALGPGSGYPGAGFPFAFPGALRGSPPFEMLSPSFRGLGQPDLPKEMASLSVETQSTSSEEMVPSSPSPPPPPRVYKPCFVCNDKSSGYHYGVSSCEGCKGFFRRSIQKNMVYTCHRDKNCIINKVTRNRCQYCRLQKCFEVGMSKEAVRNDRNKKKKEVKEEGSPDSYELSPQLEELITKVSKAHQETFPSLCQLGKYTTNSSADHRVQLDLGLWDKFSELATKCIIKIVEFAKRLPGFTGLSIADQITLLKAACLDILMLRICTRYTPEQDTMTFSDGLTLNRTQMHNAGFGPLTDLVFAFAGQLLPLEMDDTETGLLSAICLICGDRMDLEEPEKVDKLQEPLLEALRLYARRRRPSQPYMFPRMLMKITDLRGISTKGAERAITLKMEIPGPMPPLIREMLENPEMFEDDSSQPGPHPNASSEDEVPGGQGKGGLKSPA
From the text: as §1, §2

Compound | Emax (RXRα [1]) | Kd (RXRα [2]) | Kd (RXRβ) | Emax (RARγ) | EC50 (RXRα [1])
CC1(C)CCC(C)(C)c2cc(S(=O)(=O)c3ccc(C(=O)O)cc3)ccc21 [Compound 5, 4-(5,6,7,8-tetrahydro-5,5,8,8-tetramethyl-2-naphthylsulfonyl)benzoic acid] | 32% | > 1 µM | > 1 µM | 0% | 3 µM
Cc1cc2c(cc1[S+]([O-])c1ccc(C(=O)O)cc1)C(C)(C)CCC2(C)C (centres unmarked) [Compound 9, 4-(5,6,7,8-tetrahydro-3,5,5,8,8-pentamethyl-2-naphthylsulfoxy)benzoic acid] | 17% | > 1 µM | > 1 µM | 3% | 
Cc1cc2c(cc1S(=O)(=O)c1ccc(C(=O)O)cc1)C(C)(C)CCC2(C)C [Compound 11, 4-(5,6,7,8-tetrahydro-3,5,5,8,8-pentamethyl-2-naphthylsulfonyl)benzoic acid] | 55% | > 1 µM |  | 0% | 2.8 µM
Cc1cc2c(cc1Sc1ncc(C(=O)O)s1)C(C)(C)CCC2(C)C [Compound 15, 2-(5,6,7,8-Tetrahydro-3,5,5,8,8-pentamethyl-2-naphthylthio)-5-thiazolecarboxylic acid] | 85% | > 1 µM | > 1 µM | 7% | 2.3 µM

The remaining lines, values ahead:

Emax (RXRα [1]) | Kd (RXRα [2]) | Kd (RXRβ) | Emax (RARγ) | EC50 (RXRα [1]) | Compound
51% | > 1 µM | > 1 µM | 37% |  | CC1(C)CCC(C)(C)c2cc(Sc3ccc(C(=O)O)cc3)ccc21 [Compound 2]
81% | 0.296 µM | 0.302 µM | 11% | 0.28 µM | Cc1cc2c(cc1Sc1ccc(C(=O)O)cc1)C(C)(C)CCC2(C)C [Compound 7, 4-(5,6,7,8-tetrahydro-3,5,5,8,8-pentamethyl-2-Daphthylthio)benzoic acid]
91% | 0.032 µM | 0.057 µM | 0% | 0.054 µM | Cc1cc2c(cc1Sc1ccc(C(=O)O)cn1)C(C)(C)CCC2(C)C [Compound 13]
